# Assay results from PMC8003278, “Structure-Based Virtual Screening and De Novo Design of PIM1 Inhibitors with Anticancer Activity from Natural Products” (Pharmaceuticals, 2021).
# Tests used:
# PIM1 kinase = target: T1, PIM1 kinase (Homo sapiens, UniProt P11309); assay: radiometric ([γ-33P]-ATP) kinase assay, PIM1 enzyme inhibition (Reaction Biology Corp.); format: biochemical
# T1 construct: purchased Reaction Biology Corp. (Malvern, PA, USA), contract assay service
# Text: Among a total of 42,613 natural products in the chemical database, 31,874 molecules that satisfied the physicochemical property criteria for a potential drug candidate were screened through docking simulations in the ATP-binding site of PIM1 kinase, as illustrated in Figure 1. Using the modified binding free energy function involving an accurate molecular dehydration term, 100 top-scoring compounds were selected as the virtual hits, all of which were commercially available from a compound vendor (InterBioScreen Ltd., https://www.ibscreen.com, accessed on 15 October 2019). All these putative inhibitors were tested for the presence of the inhibitory activity against PIM1 kinase with in vitro radiometric ([γ-^33P]-ATP) kinase assays (Reaction Biology Corp., Malvern, PA, USA).
# The inhibitory activities of all compounds with respect to PIM1 were measured by Reaction Biology Corp. (Malvern, PA, USA) using radiometric kinase assays ([γ-^33P]-ATP). Briefly, the enzymatic reaction mixtures contained an artificial substrate peptide, poly-Glu-Tyr (4:1), in freshly prepared base reaction buffer (20 mM hydroxyethyl piperazine ethane sulfonic acid (HEPES) of pH 7.5, 10 mM MgCl2, 1 mM ethylene glycol tetraacetic acid (EGTA), 0.02% Brij-35, 0.02 mg/mL bovine serum albumin (BSA), 0.1 mM Na3VO4, 2 mM dithiothreitol (DTT), and 1% DMSO). PIM1 kinase was delivered into the substrate solution and gently mixed. Each inhibitor in 100% DMSO in a serial dilution was then delivered to the reaction mixture using the acoustic dispensing system (Echo550; nanoliter range). To initiate the enzymatic reaction, ^33P-ATP with a specific activity of 10 μCi/μL was added into the reaction mixture, which was further incubated for 2 h at room temperature. Radioactivity was then monitored by the filter-binding method after the reactions were spotted onto P81 ion exchange paper, and the filters were washed extensively in 0.75% phosphoric acid. Kinase activity data were expressed as the percent remaining kinase activity in test samples compared to vehicle (dimethyl sulfoxide) reactions. IC50 values and curve fits were calculated with Prism Software (GraphPad Software) at 10 different concentrations in duplicate.
# [1] = tested on: T47D human breast cancer cell lines; assay: MTT cell proliferation inhibition assay in T47D cells; format: cell-based; conditions: antiproliferative activity in T47D cell lines, mean ± standard deviation of the two experiments
# Experimental: To assess the anticancer activities of these new PIM1 inhibitors, we carried out cell-based assays for 5, 8, 14, 15, and 16 using T47D human cancer cell lines, which represented breast cancer caused by PIM1 [48]. The natural product wortmannin served as a positive control in this cellular study. Cell viabilities were measured at varying inhibitor concentrations with a 3-(4,5-dimethylthiazol-2-yl)-2,5-diphenyltetrazolium bromide (MTT) assay. […]. However, it should be noted that the inhibitory activities of 14–16 decrease from the nanomolar level in enzyme inhibition assays (Table 2) to the micromolar level in cell proliferation assays. The poor cell permeability can be invoked to explain the reduced biochemical potency in cell-based assays. In order for the new PIM1 inhibitors to become a good lead compound for the development of anticancer medicines, improving cellular permeability using further structural modifications is required.
# The T47D human breast cancer cell lines were purchased from Korean Cell Line Bank (KCLB, Seoul, Korea). T47D cells were then cultured in Roswell Park Memorial Institute 1640 (RPMI-1640) medium with 10% fetal bovine serum (FBS) and 1% penicillin/streptomycin, and maintained at 37 °C in a CO2 incubator with a controlled humidified atmosphere comprising 95% air and 5% CO2. All the cell culture reagents were purchased from Thermo Fisher Scientific.
# Cell viability was measured with 3-(4,5-dimethylthiazol-2-yl)-2,5-diphenyltetrazolium bromide (MTT) assay using the natural product wortmannin as a positive control. At first, T47D cells were plated at a density of 3–5 × 10^3 cells/well in 96-well plates for 24 h and then treated with either DMSO as a control or with varying concentrations of the PIM1 inhibitors (5, 8, 14, 15, and 16). The final concentration of DMSO in the medium was <0.1% (v/v). After the incubation of cells for 48 h, 20 μL of MTT solution (5 mg/mL) was added to each well for 4 h at 37 °C. The formazan crystals formed during the mixing were dissolved in DMSO (100 μL/well) by shaking for 5 min. Duplicate wells were used for each analysis although triplicate measurements would be more reliable. After 72 h, the absorbance of each solution was measured with a microplate reader at 540 nm to calculate the antiproliferative activity of the PIM1 inhibitors. Finally, the IC50 values were measured from the dose–response curves.
# [2] = PIM1 kinase, derivatives of 2, mean ± standard deviation of the two experiments
# [3] = PIM1, natural-product inhibitors, mean ± standard deviation of the two experiments
# T1 sequence (P11309 whole entry): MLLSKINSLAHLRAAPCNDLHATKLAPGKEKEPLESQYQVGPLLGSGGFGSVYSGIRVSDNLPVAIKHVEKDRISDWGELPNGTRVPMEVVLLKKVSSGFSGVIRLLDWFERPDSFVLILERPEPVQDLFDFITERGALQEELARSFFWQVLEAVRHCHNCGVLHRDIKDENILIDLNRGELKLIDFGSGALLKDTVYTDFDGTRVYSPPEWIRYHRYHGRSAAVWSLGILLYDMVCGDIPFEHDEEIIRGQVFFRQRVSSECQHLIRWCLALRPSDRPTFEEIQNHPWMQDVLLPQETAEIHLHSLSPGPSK
SMILES,IC50 (PIM1 kinase; [2]),IC50 [1],also measured
"COc1cccc(/C=C2\Oc3cc(O)ccc3C2=O)c1 [Compound 5, (Z)-6-Hydroxy-2-(3-methoxybenzylidene)benzofuran-3(2H)-one]",260 ± 50 nM,15.1 ± 1 µM,
COc1cc(O)c2c(c1)O/C(=C\c1cc(-c3ccncc3)[nH]n1)C2=O [Compound 14],18 ± 2 nM,5.9 ± 1 µM,
"COc1cccc(/C=C2\Oc3cc(O)cc(O)c3C2=O)c1 [Compound 6, (Z)-4,6-Dihydroxy-2-(3-methoxybenzylidene)benzofuran-3(2H)-one]",310 ± 20 nM,,
"O=C1/C(=C/c2ccc(Cl)c(Cl)c2)Oc2cc(O)cc(O)c21 [Compound 10, (Z)-2-(3,4-Dichlorobenzylidene)-4,6-dihydroxybenzofuran-3(2H)-one]",680 ± 80 nM,,
O=C1c2c(O)cc(O)cc2O[C@H](c2ccc(O)c(O)c2)[C@H]1O [Compound 3],,,IC50 (PIM1 kinase; [3]): 4000 ± 600 nM
"O=C1/C(=C/c2cccc(Cl)c2)Oc2cc(O)cc(O)c21 [Compound 7, (Z)-2-(3-Chlorobenzylidene)-4,6-dihydroxybenzofuran-3(2H)-one]",1450 ± 100 nM,,
O=c1c(-c2ccc(OC3OC(CO)C(O)C(O)C3O)cc2)coc2cc(O)cc(O)c12 (stereo not shown) [Compound 4],,,IC50 (PIM1 kinase; [3]): 20200 ± 2000 nM
COc1c(O)c(O)c2oc(-c3ccccc3)cc(=O)c2c1OC [Compound 1],,,IC50 (PIM1 kinase; [3]): 580 ± 200 nM
"COc1cc(/C=C2\Oc3cc(O)cc(O)c3C2=O)ccc1Cl [Compound 9, (Z)-2-(4-Chloro-3-methoxybenzylidene)-4,6-dihydroxybenzofuran-3(2H)-one]",150 ± 10 nM,,
"COc1cc(O)c2c(c1)O/C(=C\c1c[nH]c3ncc(Cl)cc13)C2=O [Compound 15, (Z)-2-((5-Chloro-1H-pyrrolo[2,3-b]pyridin-3-yl)methylene)-4-hydroxy-6-methoxybenzofuran-3(2H)-one]",8.8 ± 2 nM,3.2 ± 0.6 µM,
"COC[C@H]1OC(=O)c2coc3c2[C@@]1(C)C1=C(C3=O)[C@@H]2CCC(=O)[C@@]2(C)C[C@H]1OC(C)=O [wortmannin, reference compound]",,3.4 ± 0.2 µM,
"O=C1/C(=C/c2cc3ccccc3[nH]c2=O)Oc2cc(O)cc(O)c21 [Compound 13, (Z)-3-((4,6-Dihydroxy-3-oxobenzofuran-2(3H)-ylidene)methyl)quinolin-2(1H)-one]",1730 ± 300 nM,,
"COc1ccc(/C=C2\Oc3cc(O)ccc3C2=O)cn1 [Compound 11, (Z)-6-Hydroxy-2-((6-methoxypyridin-3-yl)methylene)benzofuran-3(2H)-one]",5230 ± 400 nM,,"decrease of inhibitory activity by a factor (PIM1 kinase; PIM1, relative to 5 (phenyl ring replaced with pyridine)): 20"
"COc1cc(/C=C2\Oc3cc(O)ccc3C2=O)ccc1Cl [Compound 8, (Z)-2-(4-Chloro-3-methoxybenzylidene)-6-hydroxybenzofuran-3(2H)-one]",200 ± 30 nM,11.2 ± 2 µM,
"O=C1/C(=C/c2ccc[nH]c2=O)Oc2cc(O)cc(O)c21 [Compound 12, (Z)-3-((4,6-Dihydroxy-3-oxobenzofuran-2(3H)-ylidene)methyl)pyridin-2(1H)-one]",5860 ± 1000 nM,,
COc1ccc(/C=C2\Oc3cc(O)ccc3C2=O)cc1 [Compound 2],1190 ± 70 nM,,IC50 (PIM1 kinase; [3]): 1200 ± 100 nM
"O=C1/C(=C/c2c[nH]c3nc(Cl)ncc23)Oc2cc(O)cc(O)c21 [Compound 16, (Z)-2-((2-Chloro-7H-pyrrolo[2,3-d]pyrimidin-5-yl)methylene)-4,6-dihydroxybenzofuran-3(2H)-one]",6.7 ± 3 nM,4.5 ± 0.8 µM,IC50 (PIM1 kinase; PIM1): 7 nM
